Columns and labels:
human PPAR α = target: T1, human PPAR α (Homo sapiens, UniProt Q07869); experiment: Luciferase assay using human PPAR α (PPAR α agonistic activity); format: cell-based; details: compound 10 μM; luciferase activity of carbacyclin (10 μM) defined as 1.0; CV-1 cells with Gal4-human PPAR α ligand binding domain chimera, 42 hours
T1 construct: expressed in transfected cells; host or cells: CV-1 cells
T1 sequence (Q07869 167-468): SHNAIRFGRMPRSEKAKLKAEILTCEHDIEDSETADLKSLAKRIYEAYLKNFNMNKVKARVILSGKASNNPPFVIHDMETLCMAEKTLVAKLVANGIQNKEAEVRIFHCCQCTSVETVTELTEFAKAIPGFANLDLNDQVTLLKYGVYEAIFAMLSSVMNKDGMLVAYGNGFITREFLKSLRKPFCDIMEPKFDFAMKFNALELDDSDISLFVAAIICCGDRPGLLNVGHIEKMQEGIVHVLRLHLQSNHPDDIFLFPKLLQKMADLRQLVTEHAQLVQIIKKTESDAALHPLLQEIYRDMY

human PPAR γ = target: T2, human PPAR γ (Homo sapiens, UniProt P37231); experiment: Luciferase assay using human PPAR γ (PPAR γ agonistic activity); format: cell-based; details: compound 10 μM; luciferase activity of troglitazone (10 μM) defined as 1.0; CV-1 cells with Gal4-human PPAR γ ligand binding domain chimera, 42 hours
T2 construct: expressed in transfected cells; host or cells: CV-1 cells
T2 sequence (P37231 204-505): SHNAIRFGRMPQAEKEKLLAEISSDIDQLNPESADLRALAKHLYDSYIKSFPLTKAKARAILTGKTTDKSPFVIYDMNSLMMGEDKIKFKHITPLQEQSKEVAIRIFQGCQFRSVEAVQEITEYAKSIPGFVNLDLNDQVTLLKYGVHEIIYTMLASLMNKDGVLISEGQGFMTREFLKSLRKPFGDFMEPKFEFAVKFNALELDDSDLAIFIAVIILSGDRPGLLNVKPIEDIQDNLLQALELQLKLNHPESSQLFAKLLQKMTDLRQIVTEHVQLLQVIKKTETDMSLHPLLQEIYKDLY

Compound: Cc1ccc(-c2nc(CCOc3cccc4c3CCCN4CCC(=O)O)c(C)o2)cc1 [Example 2]
- Relative Activity to a positive control compound (carbacyclin = 1) (human PPAR α): 0.5
- Relative Activity to a positive control compound (troglitazone = 1) (human PPAR γ): 6.7
